Experimental data: patent US20070134744A1, “Epothilone resistant cell lines” (priority 2000, published 2007)

What was measured:
Experiment in all cases: Cell-based tubulin polymerization assay
tubulin in KB-31 cells = target: T1, tubulin in KB-31 cells (Homo sapiens, UniProt P07437); conditions: 2 hours, 0-1000 nM
T1 construct: decrease in the unpolymerized pool of tubulin in KB-31 cell lysates; endogenous in cells; host or cells: KB-31 human epidermoid carcinoma cells (intact cells or hypotonic lysates)
T1 sequence (P68363 whole entry): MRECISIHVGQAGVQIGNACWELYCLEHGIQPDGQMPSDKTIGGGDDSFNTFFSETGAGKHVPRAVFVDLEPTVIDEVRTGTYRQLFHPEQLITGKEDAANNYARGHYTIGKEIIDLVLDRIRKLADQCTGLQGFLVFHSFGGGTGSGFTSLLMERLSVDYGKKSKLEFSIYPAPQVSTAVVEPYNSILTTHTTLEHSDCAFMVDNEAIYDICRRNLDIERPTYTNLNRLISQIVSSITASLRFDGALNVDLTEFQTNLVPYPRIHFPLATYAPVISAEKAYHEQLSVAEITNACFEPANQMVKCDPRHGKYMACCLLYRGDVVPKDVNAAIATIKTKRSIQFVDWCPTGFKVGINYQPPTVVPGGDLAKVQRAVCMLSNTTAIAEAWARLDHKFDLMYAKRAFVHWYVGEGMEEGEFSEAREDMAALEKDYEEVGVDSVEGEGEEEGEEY
T1 sequence (P07437 whole entry): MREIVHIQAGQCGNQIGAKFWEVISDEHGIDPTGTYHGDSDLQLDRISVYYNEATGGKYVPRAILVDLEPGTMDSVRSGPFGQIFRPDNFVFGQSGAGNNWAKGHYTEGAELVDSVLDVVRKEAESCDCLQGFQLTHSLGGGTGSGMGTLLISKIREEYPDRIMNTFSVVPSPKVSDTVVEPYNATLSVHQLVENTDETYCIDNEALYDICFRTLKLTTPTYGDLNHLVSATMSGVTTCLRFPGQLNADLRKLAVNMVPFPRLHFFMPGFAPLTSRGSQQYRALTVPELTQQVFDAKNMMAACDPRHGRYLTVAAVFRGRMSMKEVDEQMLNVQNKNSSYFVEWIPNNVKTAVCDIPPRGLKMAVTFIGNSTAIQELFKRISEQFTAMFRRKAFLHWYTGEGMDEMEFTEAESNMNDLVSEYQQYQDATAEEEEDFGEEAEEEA
Experimental: (§1) Drug-induced changes in the ratios between unpolymerized and polymerized tubulin in intact and lysed cells, respectively, are assessed basically as described (Giannakakou et al, Int. J. Cancer 75: 57-63 (1998)). Briefly, for the assessment of cellular drug effects, 2×10^5 cells are seeded in a volume of 1 ml to maximally 6 wells per 24-well plate. After incubation for 18-24 hrs at 37° C. to allow for cell attachment, test substances are added to the cell culture medium to achieve the desired concentrations, followed by incubation of the cells for 2 hrs at 37° C. Final vehicle concentration is 1%. One plate at a time is then transferred to a dimmed tissue-culture hood and cells are washed twice with 1 ml of room-temperature phosphate-buffered saline lacking Ca^++ and Mg^++ (PBS/O). After careful removal of remaining PBS/O, 100 μl of room-temperature Hypotonic Lysis Buffer A (HLB/A: 20 mM Tris-HCl (pH 6.8), 1 mM Mg2Cl, 2 mM EGTA, 2 mM Pefabloc, 1 mM benzamidine, 10 μg/ml aprotinin, 10 μg/ml leupeptin, 0.5% Nonidet P-40) is added and plates are wrapped in aluminum foil to minimize artifacts due to light-driven tubulin polymerization. Following incubation for exactly 5 min at 37° C., cells are harvested by scraping and transferred to a room-temperature eppendorf tube. Harvested wells are washed once with 100 μl room temperature HLB/A and pooled with the corresponding initial samples. Tubes are vortexed for 5 seconds to aid cell lysis, followed by centrifugation for 10 min at room-temperature in a table-top centrifuge at 12′000×g to separate microtubules (pellet) from unpolymerized tubulin (supernatant). The supernatant is then carefully transferred to a fresh eppendorf tube and stored on ice until further processed. Meanwhile, the pelleted material is resuspended in 200 μl room-temperature Resuspension Buffer (RSB: 10 mM Tris-HCl (pH 7.5), 1.5 mM Mg2Cl, 2 mM EGTA, 1 mM Pefabloc, 1 mM benzamidine, 10 μg/ml aprotinin, 10 μg/ml leupeptin, 0.5% Nonidet P-40). Solubilization of the pellet is aided by placing the eppendorf tube for 30 seconds in a sonicator waterbath. […]

[1] = target: T2, tubulin in 298/D4/40 cells (Homo sapiens, UniProt P07437, T274P); conditions: 2 hours, up to 1000 nM
T2 construct: endogenous in cells; host or cells: 297/C5/0 and 298/D4/40 sublines of KB-31 (intact cells or hypotonic lysates)
T2 sequence (P07437 whole entry T274P): as the sequence (P07437 whole entry) above, with T274P counted along it
T2 sequence (P68363 whole entry partner): as the sequence (P68363 whole entry) above
Experimental: as §1

[2] = target: T3, tubulin in 297/C5/0 cells (Homo sapiens, UniProt P07437, T274P); conditions: 2 hours, 0-1000 nM, vs KB-31
T3 construct: endogenous in cells; host or cells: 297/C5/0 and 298/D4/40 sublines of KB-31 (intact cells or hypotonic lysates)
T3 sequence (P07437 whole entry T274P): as the sequence (P07437 whole entry) above, with T274P counted along it
T3 sequence (P68363 whole entry partner): as the sequence (P68363 whole entry) above
Experimental: as §1

SMILES: C/C(=C\c1csc(C)n1)[C@@H]1C[C@@H]2O[C@@H]2CCC[C@H](C)[C@H](O)[C@@H](C)C(=O)C(C)(C)[C@@H](O)CC(=O)O1 [Epothilone A, epothilone A]
- unpolymerized tubulin in intact cells (tubulin in KB-31 cells): dose-dependent decrease in the unpolymerized pool of tubulin
- epothilone A-mediated tubulin polymerization [1]: completely refractory
- drug concentrations required to decrease the unpolymerized tubulin fraction [2]: significantly higher
